How the values were obtained:
Type in all cases: cell-based, human
RPE cells [1] = experiment: Cell proliferation assay with EGF stimulation in RPE cells
Protocol: Control, KDM4A overexpression or wild type parental RPE cells were plated at a density of 5×10^3 per well in a 6 well tissue culture plate. Each condition was plated in triplicate for each independent experiment. Cells were allowed to adhere for 16 hours before fresh complete media was added containing a final concentration of 50 ng/ml human recombinant EGF (Abcam). For control and KDM4A overexpression RPE cells, cells were harvested after 48 hours of EGF treatment and cell number calculated using a haemocytometer. For combinatorial drug experiments using parental RPE cells, EGF was added for 24 hours, following a 24 hour drug treatment with either KDM5i (1 μM) or EZH2i (3 μM).
Parental RPE cells were plated in 24 well tissue culture plates, in triplicate at a density of 5×10^3. Cells were allowed to adhere for approximately 16 hours before media was supplemented with EZH2 inhibitor (C24) at a final concentration of 3 μM. After an initial 24 hour treatment, human recombinant EGF was supplemented to each well at a final concentration of 50 ng/ml. After 48 hours of EGF treatment, cells were harvested and counted using a haemocytometer.

RPE cells [2] = experiment: Trypan blue exclusion assay of EGFR inhibitor sensitivity in RPE cells; details: KDM5i (1 μM) and Gefitinib (2.5 μM), 72 hours
Protocol: Control or stable KDM4A overexpression RPE cells were plated in 24 well tissue culture plates at a density of 5×10^3. […] Cells were stained with trypan blue solution (Sigma Aldrich) to assess cell viability and counted using a haemocytometer. Each condition was plated in triplicate wells and each well was counted in duplicate. An average was taken of all triplicates and used as a representative total.
Control or stable KDM4A overexpression RPE cells were plated in 24 well tissue culture plates at a density of 8×10^3. […] Cells were stained with trypan blue solution (Sigma Aldrich) to assess cell viability and counted using a hemocytometer. Each condition was plated in triplicate wells and each well was counted in duplicate. An average was taken of all triplicates and used as a representative total.
Parental RPE cells are plated in 24 well tissue culture plates, in triplicate at a density of 5×10^3. […] Cells are cultured for a total of 72 hours under drug treatment conditions before being harvested, stained with trypan blue and counted using a haemocytometer.

RPE cells [3] = experiment: DNA FISH for EGFR DNA copy number in RPE cells
Protocol: The FISH protocol was performed as described previously in Black et al. (2013). Briefly, cell suspensions were fixed in ice-cold methanol:glacial acetic acid (3:1) solution for a minimum of four hours, before being spun onto 8 Chamber Polystyrene vessel tissue culture treated glass slides (Falcon, Fisher Scientific), using a centrifuge at 900 rpm. The slides were air-dried and incubated in 2×SSC buffer for 2 min, followed by serial ethanol dilution (70%, 85% and 100%) incubations for 2 min each, for a total of 6 min. Air-dried slides were hybridized with probes that were diluted in appropriate buffer overnight at 37° C., following a 4 minute incubation on a heat block at 78° C. The slides were washed the next day for 3 to 4 mins in appropriate wash buffers at 69° C. with 0.4×SSC for Cytocell probes or commercially available Agilent wash buffer 1 followed by washing in 2×SSC with 0.05% Tween-20 (Cytocell probes) or commercially available Agilent wash buffer 2 (Agilent probes). The slides were incubated in 1 mg/mL DAPI solution made in 1% BSA-PBS, followed by a final 1×PBS wash. After the wash, the slides were mounted with ProLong Gold antifade reagent (Invitrogen).
FISH images were acquired using an Olympus IX81 or Olympus IX83 spinning disk microscope at 40× magnification and analyzed using Slidebook 6.0 softwares. A minimum of 25 z-planes with 0.5 um step size was acquired for each field. Copy number gains for EGFR, 7 centromere (7C), 7p telomere (7p22.3), IKZF1 (7p12.2) and 8 centromere (8C) were scored in RPE cells as three or more foci. A minimum of 100 nuclei are scored for each independent experiment.
For hypoxia, EGF and KDM5i combinatorial experiments, RPE cells were pre-treated with 1 nM of KDM4 inhibitor exactly 24 hours prior to hypoxic exposure or EGF treatment. Immediately before transferring cells to hypoxia, or before drug or growth factor treatment, KDM4 inhibitor was supplemented to cells again at a concentration of 1 nM (double spike). Cells were then cultured in the respective conditions for 24 hours prior to harvesting for RNA, protein, cell cycle and DNA FISH analysis.
RPE cells were treated with KDM5 inhibitor (C70) at a final concentration of 1 μM for a total treatment time of 48 hours. […]

EGFR transcripts = experiment: qPCR of EGFR transcripts in RPE cells; details: 50 ng/ml EGF, 24 hours
Protocol: Cells were washed and collected by trypsinization, followed by washing in PBS two times. Cell pellet was resuspended in Qiazol reagent (QIAGEN) and stored at −80° C. before further processing. Total RNA was extracted using miRNAeasy Mini Kit (QIAGEN) with an on-column DNase digestion according to the manufacturer's instructions. RNA was quantified using NanoDrop 2000 (Thermo Scientific). Single strand cDNA was prepared using Super Script IV first strand synthesis kit (Invitrogen) using random hexamers. Expression levels were analyzed using FastStart Universal SYBR Green Master (ROX) (Roche) according to the manufacturer's instructions on a LightCycler 480 PCR machine (Roche). Samples were normalized to β-actin.

RPE cells [4] = experiment: Scratch assay (cell migration) in RPE cells; details: KDM4A overexpressing RPE cells vs control, 50 ng/ml EGF, 24 hours
Protocol: Control or stable KDM4A overexpression RPE cells were plated in 6 well tissue culture plates at a density of 2×10^5. Cells were allowed to adhere to plates for 24 hours. After 24 hours in culture, a p200 pipette tip was used to introduce a scratch wound in the centre of the well from the 12 o'clock to 6 o'clock position. Following the induction of the scratch wound, media was removed from each well and 1 ml of DMEM was used to rinse the wells, removing any cellular debris. After this wash, 3 ml of DMEM supplemented with vehicle or human recombinant EGF (Abcam) to a final concentration of 50 ng/ml, was added to each well. Cells were imaged at 0 hrs, 12 hrs and 24 hrs, using the EVOS imaging platform at 4× magnification. Scratch wound measurements were performed using the EVOS software with a minimum of 5 measurements taken at various locations, per scratch wound. All measurements were averaged. Each condition was performed in triplicate for each independent experiment.

KDM4A = experiment: Immunoblot of KDM4A protein levels in RPE cells; details: EGF 50 ng/ml, 24 hours
Protocol: Cells were trypsinized and washed two times with PBS before resuspending in RIPA lysis buffer [50 mM Tris pH 7.4, 150 mM NaCl, 0.25% Sodium Deoxycholate, 1% NP40, 1 mM EDTA, 10% Glycerol] freshly supplemented with protease inhibitor and PhosSTOP phosphatase inhibitor cocktails (Roche). Cells were lysed on ice for 15 min and stored at −80° C. until further processing. Lysates were sonicated for 15 min (30 sec ON and 30 sec OFF cycle) at 70% amplitude in QSonica Q700 sonicator (Qsonica) followed by centrifugation at 12,000 rpm for 15 min. Cell lysate was transferred to a fresh tube and protein estimations were performed with Pierce BCA reagent (Thermo Scientific). Equal amounts of proteins were separated by SDS gel electrophoresis and transferred on nitrocellulose membrane (BioTrace NT, Pall Life Sciences) for at least 3 hr at a constant current. The membranes were blocked for at least 1 hr in 5% BSA-PBST (1×PBS with 0.5% Tween-20) or 5% milk-PBST and probed over night with specific antibodies as follows at the following dilutions: anti-GFP (Neuro mAb) (1:100); anti-β-Actin (1:10,000); anti-KDM4A (Neuro mAb) (1:100); anti-Flag (Sigma Aldrich) (1:500); anti-KDMSA (abcam) (1:500); anti-HALO (Promega) (1:1000); anti-Carbonic Anhydrase IX (Abcam) (1:1000). […]

Compound | cell proliferation in response to EGF (RPE cells [1]; RPE cells pre-treated with KDM5i (1 μM) 24 hours, then 50 ng/ml EGF 24 hours, compared to KDM5i alone) | percentage of cells (trypan blue exclusion) on co-treatment with Gefitinib (RPE cells [2]) | EGFR copy gains after drug removal (washout) (RPE cells [3]; RPE cells, KDM5i 1 μM, 24 hrs after removal) | EGFR copy gains (RPE cells [3]; RPE cells, KDM5i (C70) 1 μM) | EGFR transcripts (qPCR) (EGFR transcripts) | cell proliferation (RPE cells [1]; KDM4A overexpressing RPE cells vs control, 50 ng/ml EGF, 48 hours) | cell migration (scratch assay) (RPE cells [4]) | EGFR DNA copy number, EGF in KDM4A overexpressing cells (RPE cells [3]; RPE cells stably overexpressing KDM4A, 50 ng/ml EGF, 24 hours) | EGFR copy number gains (RPE cells [3]; RPE cells, 50 ng/ml EGF, 24 hours) | EGFR DNA copy number, EGF combined with hypoxia (RPE cells [3]; RPE cells, hypoxia 24 hours then 50 ng/ml EGF under hypoxia 24 hours) | KDM4A protein levels (KDM4A)
CCOC(=O)c1ccnc(CNCC(=O)N(CC)CCN(C)C)c1 [KDM5i, reference compound] | increased cell proliferation with supplemented EGF | reduced the percentage of cells relative to controls and single agent treatment | returned to baseline | promoted EGFR copy gains | – | – | – | – | – | – | –
EGF: human recombinant EGF (Abcam), the preferred ligand of EGFR | – | – | – | – | increased EGFR transcripts | proliferate faster | migrate faster | additive increases in EGFR DNA copy number | significant copy number gains of the EGFR locus | modest but additive increase in EGFR DNA copy number | does not impact KDM4A levels

Reference: patent publication US20220411879A1, “COMPOSITIONS AND METHODS FOR REGULATING EGFR AMPLIFICATION IN CANCER CELLS FOR IMPROVING EFFICACY OF EGFR-TARGETED ANTI-CANCER AGENTS” (Institute for Cancer Research d/b/a The Research Institute …, priority 2019, published 2022)
